Counter-ions that a name gives are not always drawn.
Key:
HPK1 = HPK1 (Homo sapiens (Human), UniProt Q92918); test: HPK1 kinase activity inhibition test (ADP-Glo, luminescence); type: biochemical; conditions: HPK1 5 nM, ATP 2 μM, read-out: IC50, inhibitory effects of compounds on HPK1 kinase activity
Method in brief: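 HPK1 autophosphorylation was run without added substrate. Kinase and compound were preincubated 10 min at 25° C., then ATP was added for 60 min at 25° C. ADP formed was detected by ADP-Glo luminescence, and IC50 was taken from a four-parameter nonlinear fit.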

Human Jurkat-E6-1 cells = test: Measurement of IL-2 secretion of Jurkat cells by ELISA; type: cell-based; conditions: Homo sapiens, Jurkat E6.1, anti-CD3/anti-CD28 stimulation 24 hours, read-out: Percentage of the amount of IL-2 secreted from compound treated/DMSO-treated cells; for activity at 3 µM: test compound 3.0 μM; for activity at 1 µM: test compound 1.0 μM
Protocol: 2. Measurement of IL-2 Secretion of Jurkat Cells by ELISA
Human Jurkat-E6-1 cells were incubated with various concentrations of test compounds for 30 minutes in a humidified incubator at 37° C. and […]. Cells were transferred to cell culture plates pre-coated with anti-human CD3 antibody, then soluble anti-human CD28 antibody was added, and cells were stimulated for 24 hours at 37° C. and 5% CO2 in a humidified incubator. The cell culture medium was collected by centrifugation, and was then transferred to a 96-well transparent microtiter plate (Thermo) pre-coated with anti-human IL-2 antibody, incubated at room temperature for 2 hours, and gently shaken, washed with washing buffer for 4 times, and then followed the ELISA MAX Deluxe Set Human IL-2 (BioLegend) kit procedure, used a microplate reader (Molecular Device, i3X) to read the GD value. The best standard curve was selected by the microplate reader application software, and the corresponding concentration was calculated according to the GD value of the standard. Results are expressed as a percentage of the amount of IL-2 secreted from compound-treated/DMSO-treated cells.

Chain of HPK1 (Q92918 whole entry): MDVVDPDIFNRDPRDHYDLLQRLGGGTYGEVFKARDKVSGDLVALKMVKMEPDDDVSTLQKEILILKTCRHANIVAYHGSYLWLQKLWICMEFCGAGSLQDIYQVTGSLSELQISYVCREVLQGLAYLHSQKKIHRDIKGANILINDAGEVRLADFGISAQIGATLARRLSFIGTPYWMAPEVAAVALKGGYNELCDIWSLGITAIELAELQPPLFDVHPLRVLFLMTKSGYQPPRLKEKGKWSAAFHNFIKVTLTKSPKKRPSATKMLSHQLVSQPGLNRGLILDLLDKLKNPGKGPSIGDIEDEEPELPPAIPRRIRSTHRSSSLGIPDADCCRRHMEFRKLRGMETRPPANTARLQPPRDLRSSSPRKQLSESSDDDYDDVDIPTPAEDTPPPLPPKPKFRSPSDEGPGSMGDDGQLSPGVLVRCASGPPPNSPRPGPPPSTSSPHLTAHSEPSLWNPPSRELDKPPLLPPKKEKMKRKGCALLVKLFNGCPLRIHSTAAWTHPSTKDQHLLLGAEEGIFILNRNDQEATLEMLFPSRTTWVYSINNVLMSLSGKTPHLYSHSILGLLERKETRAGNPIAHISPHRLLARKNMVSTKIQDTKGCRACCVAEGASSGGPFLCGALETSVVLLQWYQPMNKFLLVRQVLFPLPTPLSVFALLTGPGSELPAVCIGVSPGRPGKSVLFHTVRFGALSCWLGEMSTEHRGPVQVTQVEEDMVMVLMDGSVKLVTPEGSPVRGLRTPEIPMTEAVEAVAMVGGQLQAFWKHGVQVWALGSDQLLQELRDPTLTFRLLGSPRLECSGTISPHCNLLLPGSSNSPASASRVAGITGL

Compound	IC50 (HPK1) [µM]	activity at 3 µM (Human Jurkat-E6-1 cells) [%]	activity at 1 µM (Human Jurkat-E6-1 cells) [%]	activity at 0.33 µM (Human Jurkat-E6-1 cells; test compound 0.33 μM) [%]
Cc1cccc(F)c1-n1nc2c(-c3ccc4c(c3)CN(C(C)CO)CC4)n[nH]c2cc1=O (stereo not drawn) [Compound 165, 5-(2-fluoro-6-methylphenyl)-3-(2-(1-hydroxylprop-2-yl)-1,2,3,4-tetrahydroisoquinolin-7-yl)-1H-pyrazolo[4,3-c]pyridazin-6(5H)-one]	0.05 to 0.5	–	181	–
Cc1cc(C#N)cc(F)c1-n1nc2c(-c3ccc(N4CCN(C)CC4)nc3)n[nH]c2cc1=O [Compound 99, 3-fluoro-5-methyl-4-(3-(6-(4-methylpiperazin-1-yl)pyrid-3-yl)-6-oxo-1H-pyrazolo[4,3-c]pyridazin-5(6H)-yl)benzonitrile]	0.05 to 0.5	237	–	–
Cc1cccc(F)c1-n1nc2c(-c3ccc(N4C[C@H]5C[C@@H]4CN5C)cc3)n[nH]c2cc1=O [Compound 88, 5-(2-fluoro-6-methylphenyl)-3-(4-((1R,4R)-5-methyl-2,5-diazabicyclo[2.2.1]heptan-2-yl)phenyl)-1H-pyrazolo[4,3-c]pyridazin-6(5H)-one]	0.05 to 0.5	550	–	–
Cc1cc(-c2n[nH]c3cc(=O)n(-c4c(C)cccc4F)nc23)cc(C)c1N1CCN(C)CC1 [Compound 13]	0.05 to 0.5	315	–	–
Cc1cc(Cl)cc(F)c1-n1nc2c(-c3ccc(N4CCN(C)CC4)nc3)n[nH]c2cc1=O [Compound 108]	0.05 to 0.5	312	–	–
Cc1cccc(F)c1-n1nc2c(-c3ccc(N4CCN(C5CC5)CC4)cc3)n[nH]c2cc1=O [Compound 58, 3-(4-(4-cyclopropylpiperazin-1-yl)phenyl)-5-(2-fluoro-6-methylphenyl)-1H-pyrazolo[4,3-c]pyridazin-6(5H)-one]	0.05 to 0.5	233	–	–
COc1cc(F)cc(F)c1-n1nc2c(-c3ccc(N4CCN(C)CC4)cc3)n[nH]c2cc1=O [Compound 77, 5-(2,4-difluoro-6-methoxyphenyl)-3-(4-(4-methylpiperazin-1-yl)phenyl)-1H-pyrazolo[4,3-c]pyridazin-6(5H)-one]	≤ 0.05	–	233	–
Cc1cccc(F)c1-n1nc2c(-c3ccc4c(c3)CN(C)CC4)n[nH]c2cc1=O [Compound 156, 5-(2-fluoro-6-methylphenyl)-3-(2-methyl-1,2,3,4-tetrahydroisoquinolin-7-yl)-1H-pyrazolo[4,3-c]pyridazin-6(5H)-one]	≤ 0.05	849	–	–
Cc1cccc(F)c1-n1nc2c(-c3ccc(N4CCN(C5CCOC5)CC4)nc3)n[nH]c2cc1=O (stereo not drawn) [Compound 106, 5-(2-fluoro-6-methylphenyl)-3-(6-(4-(tetrahydrofuran-3-yl)piperazin-1-yl)pyrid-3-yl)-1H-pyrazolo[4,3-c]pyridazin-6(5H)-one]	≤ 0.05	833	–	–
COc1cccc(F)c1-n1nc2c(-c3ccc(N4CCN(CCO)CC4)cc3)n[nH]c2cc1=O [Compound 113, 5-(2-fluoro-6-methoxyphenyl)-3-(4-(4-(2-hydroxyethyl)piperazin-1-yl)phenyl)-1H-pyrazolo[4,3-c]pyridazin-6(5H)-one]	≤ 0.05	368	–	–
CN1CCN(c2ccc(-c3n[nH]c4cc(=O)n(-c5c(O)cccc5F)nc34)cn2)CC1 [Compound 100, 5-(2-fluoro-6-hydroxylphenyl)-3-(6-(4-methylpiperazin-1-yl)pyrid-3-yl)-1H-pyrazolo[4,3-c]pyridazin-6(5H)-one hydrobromide]	0.05 to 0.5	284	–	–
Cc1cc(C#N)cc(F)c1-n1nc2c(-c3ccc(N4CCN(C)CC4)cc3)n[nH]c2cc1=O [Compound 42, 3-fluoro-5-methyl-4-(3-(4-(4-methylpiperazin-1-yl)phenyl)-6-oxo-1H-pyrazolo[4,3-c]pyridazin-5(6H)-yl)benzonitrile]	≤ 0.05	365	–	–

Now from value to compound, other results behind:

IC50 (HPK1) [µM]	Compound	activity at 3 µM (Human Jurkat-E6-1 cells) [%]	activity at 1 µM (Human Jurkat-E6-1 cells) [%]	activity at 0.33 µM (Human Jurkat-E6-1 cells; test compound 0.33 μM) [%]
≤ 0.05	Cc1cccc(F)c1-n1nc2c(-c3ccc(N4C[C@@H](C)N(C)[C@@H](C)C4)cc3)n[nH]c2cc1=O [Compound 90, 5-(2-fluoro-6-methylphenyl)-3-(4-((3S,5R)-3,4,5-trimethylpiperazin-1-yl)phenyl)-1H-pyrazolo[4,3-c]pyridazin-6(5H)-one]	667	–	–
≤ 0.05	CC(C)c1cccc(F)c1-n1nc2c(-c3ccc(N4CCN(C)CC4)cc3)n[nH]c2cc1=O [Compound 29, 5-(2-fluoro-6-isopropylphenyl)-3-(4-(4-methylpiperazin-1-yl)phenyl)-1H-pyrazolo[4,3-c]pyridazin-6(5H)-one]	–	291	–
≤ 0.05	Cc1cccc(F)c1-n1nc2c(-c3ccc(N4CCN5CCOC[C@H]5C4)cc3)n[nH]c2cc1=O [Compound 134, (R)-5-(2-fluoro-6-methylphenyl)-3-(4-(hexahydropyrazino[2,1-c][1,4]oxazin-8(1H)-yl)phenyl)-1H-pyrazolo[4,3-c]pyridazin-6(5H)-one]	527	–	–
≤ 0.05	COc1cc(C#N)cc(F)c1-n1nc2c(-c3ccc4c(c3)CN(C)CC4)n[nH]c2cc1=O [Compound 159, 3-fluoro-5-methoxy-4-(3-(2-methyl-1,2,3,4-tetrahydroisoquinolin-7-yl)-6-oxo-1H-pyrazolo[4,3-c]pyridazin-5(6H)-yl)benzonitrile]	454	–	–
≤ 0.05	Cc1cc(C#N)cc(F)c1-n1nc2c(-c3ccc(N4CCN(C(=O)C(C)O)CC4)cc3)n[nH]c2cc1=O (stereo not drawn) [Compound 83]	252	–	–
≤ 0.05	COc1cccc(F)c1-n1nc2c(-c3ccc(N4CCN(C)CC4)cc3)n[nH]c2cc1=O [Compound 9, 5-(2-fluoro-6-methoxyphenyl)-3-(4-(4-methylpiperazin-1-yl)phenyl)-1H-pyrazolo[4,3-c]pyridazin-6(5H)-one]	188	–	–
≤ 0.05	COc1cccc(F)c1-n1nc2c(-c3ccc(N4CCOCC4)nc3)n[nH]c2cc1=O [Compound 27, 5-(2-fluoro-6-methoxyphenyl)-3-(6-morpholinopyrid-3-yl)-1H-pyrazolo[4,3-c]pyridazin-6(5H)-one]	–	–	302
≤ 0.05	CCc1cccc(F)c1-n1nc2c(-c3ccc(N4CCN(CCO)CC4)cc3)n[nH]c2cc1=O [Compound 112, 5-(2-ethyl-6-fluorophenyl)-3-(4-(4-(2-hydroxyethyl)piperazin-1-yl)phenyl)-1H-pyrazolo[4,3-c]pyridazin-6(5H)-one]	703	–	–
≤ 0.05	Cc1cc(C#N)cc(F)c1-n1nc2c(-c3ccc4c(c3)CN(C)CC4)n[nH]c2cc1=O [Compound 170, 3-fluoro-5-methyl-4-(3-(2-methyl-1,2,3,4-tetrahydroisoquinolin-7-yl)-6-oxo-1H-pyrazolo[4,3-c]pyridazin-5(6H)-yl)benzonitrile]	–	279	–
≤ 0.05	COc1cccc(F)c1-n1nc2c(-c3cnc(N4CCOCC4)nc3)n[nH]c2cc1=O [Compound 111, 5-(2-fluoro-6-methoxyphenyl)-3-(2-morpholinyl-pyrimidin-5-yl)-1H-pyrazolo[4,3-c]pyridazin-6(5H)-one]	522	–	–
≤ 0.05	COc1cccc(F)c1-n1nc2c(-c3ccc(N4CCN(C)C(CO)C4)cc3)n[nH]c2cc1=O (stereo not drawn) [Compound 121, 5-(2-fluoro-6-methoxyphenyl)-3-(4-(3-(hydroxymethyl)-4-methylpiperazin-1-yl)phenyl)-1H-pyrazolo[4,3-c]pyridazin-6(5H)-one]	459	–	–
≤ 0.05	COc1cccc(F)c1-n1nc2c(-c3ccc(N4CCC(O)CC4)cc3)n[nH]c2cc1=O [Compound 139, 5-(2-fluoro-6-methoxyphenyl)-3-(4-(4-hydroxylpiperidin-1-yl)phenyl)-1H-pyrazolo[4,3-c]pyridazin-6(5H)-one]	315	–	–
≤ 0.05	Cc1cc(C#N)cc(F)c1-n1nc2c(-c3ccc(N4CCN(C5CCOC5)CC4)cc3)n[nH]c2cc1=O (stereo not drawn) [Compound 85, 3-fluoro-5-methyl-4-(6-oxo-3-(4-(4-(tetrahydrofuran-3-yl)piperazin-1-yl)phenyl)-1H-pyrazolo[4,3-c]pyridazin-5(6H)-yl)benzonitrile]	239	–	–
≤ 0.05	COc1ccccc1-n1nc2c(-c3ccc(N4CCN(C)CC4)cc3)n[nH]c2cc1=O [Compound 3, 5-(2-methoxyphenyl)-3-(4-(4-methylpiperazin-1-yl)phenyl)-1H-pyrazolo[4,3-c]pyridazin-6(5H)-one]	–	211	–
≤ 0.05	Cc1cccc(F)c1-n1nc2c(-c3ccc(N4CCN5CCOC[C@@H]5C4)cc3)n[nH]c2cc1=O [Compound 133, (S)-5-(2-fluoro-6-methylphenyl)-3-(4-(hexahydropyrazino[2,1-c][1,4]oxazin-8(1H)-yl)phenyl)-1H-pyrazolo[4,3-c]pyridazin-6(5H)-one]	800	–	–

Source: US20230322789A1, “PYRAZOLOPYRIDAZINONE COMPOUND, AND PHARMACEUTICAL COMPOSITION AND USE THEREOF” (BroadenBio Co., Ltd., priority 2020, published 2023)
